How the values were obtained:
COR-L279 = test: SANGER: Inhibition of human COR-L279 cell growth in a cell viability assay.; assay type: functional, cell-based
Calu-1 = test: SANGER: Inhibition of human Calu-1 cell growth in a cell viability assay.; assay type: functional, cell-based
Caov-3 cell line = test: cells; assay type: functional, cell-based; conditions: Homo sapiens
Description: SANGER: Inhibition of human Caov-3 cell growth in a cell viability assay.

DG-75 = test: cells; assay type: functional, cell-based; conditions: Homo sapiens
Description: SANGER: Inhibition of human DG-75 cell growth in a cell viability assay.

DMS-53 = test: cells; assay type: functional, cell-based, Homo sapiens; conditions: Homo sapiens, DMS-53
Description: SANGER: Inhibition of human DMS-53 cell growth in a cell viability assay.

DV-90 = test: cells; assay type: functional, cell-based; conditions: Homo sapiens
Description: SANGER: Inhibition of human DV-90 cell growth in a cell viability assay.

EB-3 = test: cells; assay type: functional, cell-based; conditions: Homo sapiens
Description: SANGER: Inhibition of human EB-3 cell growth in a cell viability assay.

EFE-184 = test: cells; assay type: functional, cell-based; conditions: Homo sapiens
Description: SANGER: Inhibition of human EFE-184 cell growth in a cell viability assay.

EW-7 = test: SANGER: Inhibition of human EW-7 cell growth in a cell viability assay.; assay type: functional, cell-based; conditions: Homo sapiens, EW-7
HSC-4 = test: cells; assay type: functional, cell-based, Homo sapiens; conditions: Homo sapiens, HSC-4
Description: SANGER: Inhibition of human HSC-4 cell growth in a cell viability assay.

IPC-298 = test: SANGER: Inhibition of human IPC-298 cell growth in a cell viability assay.; assay type: functional, cell-based
IST-SL2 = test: cells; assay type: functional, cell-based; conditions: Homo sapiens
Description: SANGER: Inhibition of human IST-SL2 cell growth in a cell viability assay.

LB647-SCLC = test: cells; assay type: functional, cell-based; conditions: Homo sapiens
Description: SANGER: Inhibition of human LB647-SCLC cell growth in a cell viability assay.

LC4-1 = test: cells; assay type: functional, cell-based; conditions: Homo sapiens
Description: SANGER: Inhibition of human LC4-1 cell growth in a cell viability assay.

LOUCY = test: cells; assay type: functional, cell-based; conditions: Homo sapiens
Description: SANGER: Inhibition of human LOUCY cell growth in a cell viability assay.

MC-CAR = test: cells; assay type: functional, cell-based; conditions: Homo sapiens
Description: SANGER: Inhibition of human MC-CAR cell growth in a cell viability assay.

MDA-MB-134-VI = test: cells; assay type: functional, cell-based; conditions: Homo sapiens
Description: SANGER: Inhibition of human MDA-MB-134-VI cell growth in a cell viability assay.

MDA-MB-468 = test: cells; assay type: functional, cell-based; conditions: Homo sapiens
Description: SANGER: Inhibition of human MDA-MB-468 cell growth in a cell viability assay.

MES-SA = test: cells; assay type: functional, cell-based, Homo sapiens; conditions: Homo sapiens, MES-SA
Description: SANGER: Inhibition of human MES-SA cell growth in a cell viability assay.

MFE-296 = test: SANGER: Inhibition of human MFE-296 cell growth in a cell viability assay.; assay type: functional, cell-based
NCI-H1618 = test: cells; assay type: functional, cell-based; conditions: Homo sapiens
Description: SANGER: Inhibition of human NCI-H1618 cell growth in a cell viability assay.

NCI-H1734 = test: cells; assay type: functional, cell-based; conditions: Homo sapiens
Description: SANGER: Inhibition of human NCI-H1734 cell growth in a cell viability assay.

NCI-H2009 = test: cells; assay type: functional, cell-based, Homo sapiens; conditions: Homo sapiens, NCI-H2009
Description: SANGER: Inhibition of human NCI-H2009 cell growth in a cell viability assay.

NCI-H2171 = test: cells; assay type: functional, cell-based; conditions: Homo sapiens
Description: SANGER: Inhibition of human NCI-H2171 cell growth in a cell viability assay.

NCI-H322M = test: cells; assay type: functional, cell-based; conditions: Homo sapiens
Description: SANGER: Inhibition of human NCI-H322M cell growth in a cell viability assay.

NCI-H630 = test: cells; assay type: functional, cell-based, Homo sapiens; conditions: Homo sapiens, NCI-H630
Description: SANGER: Inhibition of human NCI-H630 cell growth in a cell viability assay.

NCI-H64 = test: cells; assay type: functional, cell-based; conditions: Homo sapiens
Description: SANGER: Inhibition of human NCI-H64 cell growth in a cell viability assay.

NCI-H838 = test: cells; assay type: functional, cell-based; conditions: Homo sapiens
Description: SANGER: Inhibition of human NCI-H838 cell growth in a cell viability assay.

NCI-H889 = test: cells; assay type: functional, cell-based; conditions: Homo sapiens
Description: SANGER: Inhibition of human NCI-H889 cell growth in a cell viability assay.

SNU-16 = test: cells; assay type: functional, cell-based; conditions: Homo sapiens
Description: SANGER: Inhibition of human NCI-SNU-16 cell growth in a cell viability assay.

PLC-PRF-5 = test: cells; assay type: functional, cell-based; conditions: Homo sapiens
Description: SANGER: Inhibition of human PLC-PRF-5 cell growth in a cell viability assay.

RT-4 = test: SANGER: Inhibition of human RT4 cell growth in a cell viability assay.; assay type: functional, cell-based; conditions: Homo sapiens, RT-4
SCC-3 = test: cells; assay type: functional, cell-based; conditions: Homo sapiens
Description: SANGER: Inhibition of human SCC-3 cell growth in a cell viability assay.

SIG-M5 = test: cells; assay type: functional, cell-based; conditions: Homo sapiens
Description: SANGER: Inhibition of human SIG-M5 cell growth in a cell viability assay.

SIMA = test: cells; assay type: functional, cell-based, Homo sapiens; conditions: Homo sapiens, SIMA
Description: SANGER: Inhibition of human SIMA cell growth in a cell viability assay.

SJRH30 = test: cells; assay type: functional, cell-based; conditions: Homo sapiens
Description: SANGER: Inhibition of human SJRH30 cell growth in a cell viability assay.

SK-CO-1 = test: cells; assay type: functional, cell-based; conditions: Homo sapiens
Description: SANGER: Inhibition of human SK-CO-1 cell growth in a cell viability assay.

SNG-M = test: cells; assay type: functional, cell-based; conditions: Homo sapiens
Description: SANGER: Inhibition of human SNG-M cell growth in a cell viability assay.

SR = test: cells; assay type: functional, cell-based; conditions: Homo sapiens
Description: SANGER: Inhibition of human SR cell growth in a cell viability assay.

ST486 = test: SANGER: Inhibition of human ST486 cell growth in a cell viability assay.; assay type: functional, cell-based
BC1 cell line = test: SANGER: Inhibition of human BC-1 cell growth in a cell viability assay.; assay type: functional, cell-based
BOKU = test: cells; assay type: functional, cell-based; conditions: Homo sapiens
Description: SANGER: Inhibition of human BOKU cell growth in a cell viability assay.

C-4-II = test: SANGER: Inhibition of human C-4-II cell growth in a cell viability assay.; assay type: functional, cell-based
CAL-148 = test: cells; assay type: functional, cell-based; conditions: Homo sapiens
Description: SANGER: Inhibition of human CAL-148 cell growth in a cell viability assay.

TE-15 = test: cells; assay type: functional, cell-based; conditions: Homo sapiens
Description: SANGER: Inhibition of human TE-15 cell growth in a cell viability assay.

TT = test: cells; assay type: functional, cell-based; conditions: Homo sapiens
Description: SANGER: Inhibition of human TT cell growth in a cell viability assay.

TUR = test: cells; assay type: functional, cell-based; conditions: Homo sapiens
Description: SANGER: Inhibition of human TUR cell growth in a cell viability assay.

CCF-STTG1 = test: cells; assay type: functional, cell-based; conditions: Homo sapiens
Description: SANGER: Inhibition of human CCF-STTG1 cell growth in a cell viability assay.

CHP-126 = test: cells; assay type: functional, cell-based; conditions: Homo sapiens
Description: SANGER: Inhibition of human CHP-126 cell growth in a cell viability assay.

COLO 205 = test: cells; assay type: functional, cell-based; conditions: Homo sapiens
Description: SANGER: Inhibition of human COLO-205 cell growth in a cell viability assay.

## COC(=O)CNC(=O)C(=O)OC
COR-L279
  IC50: > 4000 µM
Calu-1
  IC50: 896 µM
Caov-3 cell line
  IC50: 1080 µM
DG-75
  IC50: 1050 µM
DMS-53
  IC50: 181 µM
DV-90
  IC50: > 4000 µM
EB-3
  IC50: 49.6 µM
EFE-184
  IC50: 553 µM
EW-7
  IC50: 729 µM
HSC-4
  IC50: 414 µM
IPC-298
  IC50: 1670 µM
IST-SL2
  IC50: 157 µM
LB647-SCLC
  IC50: 3530 µM
LC4-1
  IC50: 99.8 µM
LOUCY
  IC50: 10.3 µM
MC-CAR
  IC50: 509 µM
MDA-MB-134-VI
  IC50: > 4000 µM
MDA-MB-468
  IC50: > 4000 µM
MES-SA
  IC50: 1070 µM
MFE-296
  IC50: 318 µM
NCI-H1618
  IC50: > 4000 µM
NCI-H1734
  IC50: > 4000 µM
NCI-H2009
  IC50: 296 µM
NCI-H2171
  IC50: > 4000 µM
NCI-H322M
  IC50: > 4000 µM
NCI-H630
  IC50: 3880 µM
NCI-H64
  IC50: 273 µM
NCI-H838
  IC50: 1340 µM
NCI-H889
  IC50: > 4000 µM
SNU-16
  IC50: > 4000 µM
PLC-PRF-5
  IC50: 1190 µM
RT-4
  IC50: 649 µM
SCC-3
  IC50: 1740 µM
SIG-M5
  IC50: 57.6 µM
SIMA
  IC50: 846 µM
SJRH30
  IC50: 1550 µM
SK-CO-1
  IC50: > 4000 µM
SNG-M
  IC50: > 4000 µM
SR
  IC50: 4.58 µM
ST486
  IC50: 71 µM
BC1 cell line
  IC50: 86.1 µM
BOKU
  IC50: 177 µM
C-4-II
  IC50: 552 µM
CAL-148
  IC50: > 4000 µM
TE-15
  IC50: 218 µM
TT
  IC50: 538 µM
TUR
  IC50: 171 µM
CCF-STTG1
  IC50: > 4000 µM
CHP-126
  IC50: 3500 µM
COLO 205
  IC50: > 4000 µM

## COc1cc([C@@H]2c3cc4c(cc3[C@@H](O[C@@H]3O[C@@H]5CO[C@@H](C)O[C@H]5[C@H](O)[C@H]3O)[C@H]3COC(=O)[C@H]23)OCO4)cc(OC)c1O [ETOPOSIDE]
COR-L279
  IC50: 1.27 µM
Calu-1
  IC50: 7.89 µM
Caov-3 cell line
  IC50: > 16 µM
DG-75
  IC50: > 16 µM
DMS-53
  IC50: > 16 µM
DV-90
  IC50: > 16 µM
EB-3
  IC50: > 16 µM
EFE-184
  IC50: > 16 µM
EW-7
  IC50: 0.125 µM
HSC-4
  IC50: 1.26 µM
IPC-298
  IC50: 4.33 µM
IST-SL2
  IC50: 0.85 µM
LB647-SCLC
  IC50: 2 µM
LC4-1
  IC50: 3.23 µM
LOUCY
  IC50: 0.177 µM
MC-CAR
  IC50: 0.58 µM
MDA-MB-134-VI
  IC50: > 16 µM
MDA-MB-468
  IC50: 1.47 µM
MES-SA
  IC50: 0.458 µM
MFE-296
  IC50: 0.763 µM
NCI-H1618
  IC50: > 16 µM
NCI-H1734
  IC50: 1.51 µM
NCI-H2009
  IC50: 0.697 µM
NCI-H2171
  IC50: > 16 µM
NCI-H322M
  IC50: > 16 µM
NCI-H630
  IC50: 9.12 µM
NCI-H64
  IC50: 4 µM
NCI-H838
  IC50: > 16 µM
NCI-H889
  IC50: > 16 µM
SNU-16
  IC50: > 16 µM
PLC-PRF-5
  IC50: > 16 µM
RT-4
  IC50: > 16 µM
SCC-3
  IC50: 1.21 µM
SIG-M5
  IC50: 0.131 µM
SIMA
  IC50: 8.85 µM
SJRH30
  IC50: 4.72 µM
SK-CO-1
  IC50: 1.63 µM
SNG-M
  IC50: 1.16 µM
SR
  IC50: 0.443 µM
ST486
  IC50: 2.25 µM
BC1 cell line
  IC50: 0.545 µM
BOKU
  IC50: 1.63 µM
C-4-II
  IC50: 1.71 µM
CAL-148
  IC50: 0.625 µM
TE-15
  IC50: 0.96 µM
TT
  IC50: > 16 µM
TUR
  IC50: 0.722 µM
CCF-STTG1
  IC50: 6.91 µM
CHP-126
  IC50: 6.27 µM
COLO 205
  IC50: 0.265 µM

Source: ChEMBL document CHEMBL1201861, “Genomics of Drug Sensitity in Cancer screening data, Wellcome Trust Sanger Institute”
